From ChEMBL document CHEMBL3046299, “Neonicotinoid substituents forming a water bridge at the nicotinic acetylcholine receptor” (J Agric Food Chem, 2009)
pKi: −log10 of the molar value.

Assays:
Aphis gossypii = test: Insecticidal activity against adult Aphis gossypii (cotton aphid) in cucumber cotyledons assessed as mortality at 500 ppm treated for 5 secs before adult infestation measured after 72 hr; type: functional; conditions: in Cucumis sativus
[1] = Displacement of [3H]IMI from nicotinic acetylcholine receptor in Drosophila melanogaster brain
Drosophila melanogaster = test: Displacement of [3H]IMI from nicotinic acetylcholine receptor in Drosophila melanogaster brain at Ki concentration

Row | SMILES | mortality at 500 ppm (Aphis gossypii) [%] | pKi [1] | inhibition (Drosophila melanogaster) [%]
1 | O=[N+]([O-])/N=C1\NCCN1CC1CCOC1 (stereo not given) | 100 | 6.96 | 
2 | O=[N+]([O-])/N=C1\NCCN1C[C@H]1C[C@@H]2O[C@@H]2C1 | 18 | 4.83 | 
3 | CCCN1CCN/C1=N\[N+](=O)[O-] | 31 | 4.89 | 
4 | CC(=O)CCN1CCN(Cc2ccc(Cl)nc2)/C1=N/[N+](=O)[O-] |  | 5.21 | 
5 | O=[N+]([O-])/N=C1\NCCN1CCCCF | 27 | 5.46 | 
6 | O=[N+]([O-])/N=C1\NCCN1CCC(O)C(F)(F)F (stereo not given) |  | 4.74 | 
7 | O=[N+]([O-])/N=C1\NCCN1C[C@@H]1C[C@@H]2O[C@@H]2C1 | 0 | 5.09 | 
8 | O=[N+]([O-])/N=C1\N(CCC(O)C(F)(F)F)CCN1Cc1ccc(Cl)nc1 (stereo not given) |  | 5.30 | 
9 | O=[N+]([O-])/N=C1\NCCN1CCF | 47 | ≤ 4.00 | 44
10 | O=[N+]([O-])/N=C1\NCCN1Cc1ccc(Cl)nc1 [IMIDACLOPRID] | 100 | 8.52 | 
11 | CO/N=C(\C)CCN1CCN/C1=N\[N+](=O)[O-] | 2 | 4.21 | 
12 | O=[N+]([O-])/N=C1\N(CCCF)CCN1Cc1ccc(Cl)nc1 |  | 6.13 | 
13 | CN/C(=N\[N+](=O)[O-])NCc1cnc(Cl)s1 [CLOTHIANIDINE] | 100 | 8.40 | 
14 | O=[N+]([O-])/N=C1\NCCN1CC1CC=CC1 | 20 | 4.70 | 
15 | CC(=O)CCN1CCN/C1=N\[N+](=O)[O-] | 8 | 5.92 | 
16 | CC(=O)O/C(=C\CN1CCN/C1=N\[N+](=O)[O-])C(F)(F)F |  | 4.79 | 
17 | O=[N+]([O-])/N=C1\NCCN1CCCCl | 55 | 5.44 | 
18 | C/C(CCN1CCN/C1=N\[N+](=O)[O-])=N\O | 10 | 4.39 | 
19 | O=C(CCN1CCN/C1=N\[N+](=O)[O-])C(F)(F)F | 0 | ≤ 4.00 | 43
20 | CCCN1CCN(Cc2ccc(Cl)nc2)/C1=N/[N+](=O)[O-] |  | 6.05 | 
21 | CN/C(=N/CC1CCOC1)N[N+](=O)[O-] (stereo not given) [DINOTEFURAN] | 100 | 7.12 | 
22 | O=[N+]([O-])/N=C1\NCCN1CCCF | 55 | 5.77 | 
